This note sets out measurements from article PMC6371759 (Chemical Science, 2018).

The experiment has as its target human serum albumin (HSA) (Homo sapiens, UniProt P02768). Nature of the experiment: tryptophan fluorescence quenching. It counts as binding.

The structures appear in SMILES notation.

human serum albumin (HSA), sequence (P02768 25-609): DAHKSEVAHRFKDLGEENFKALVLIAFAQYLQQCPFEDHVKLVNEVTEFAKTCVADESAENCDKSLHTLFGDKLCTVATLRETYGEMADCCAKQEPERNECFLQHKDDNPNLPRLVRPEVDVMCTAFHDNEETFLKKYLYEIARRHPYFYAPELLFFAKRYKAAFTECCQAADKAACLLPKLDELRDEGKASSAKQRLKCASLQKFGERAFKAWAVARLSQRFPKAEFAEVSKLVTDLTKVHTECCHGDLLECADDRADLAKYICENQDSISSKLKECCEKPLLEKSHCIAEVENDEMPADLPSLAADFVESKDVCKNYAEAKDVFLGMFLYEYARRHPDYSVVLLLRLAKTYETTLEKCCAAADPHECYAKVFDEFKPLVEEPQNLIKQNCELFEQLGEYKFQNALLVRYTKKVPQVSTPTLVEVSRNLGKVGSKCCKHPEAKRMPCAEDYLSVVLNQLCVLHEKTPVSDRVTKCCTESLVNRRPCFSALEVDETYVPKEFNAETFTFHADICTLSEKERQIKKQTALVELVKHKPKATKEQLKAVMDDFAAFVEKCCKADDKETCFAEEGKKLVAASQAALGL

With `C[C@]12CC[C@H]3[C@@H](CCC4=CC(=O)CC[C@@]43C)[C@@H]1CC[C@@H]2O` [testosterone], the affinity, expressed as Kd, was 363 ± 83 µM.
